Results from PMC5209244 (Bioorganic & medicinal chemistry, 2016).
Where a name gives a salt, the structure may show the parent alone.

What was measured:
[1] = target: SERT (Homo sapiens, UniProt P31645); assay: NIMH-PDSP radioligand binding, serotonin transporter
[2] = target: T1, 5-HT2CR (Homo sapiens, UniProt P28335); assay: NIMH-PDSP radioligand binding, 5-HT2C receptor
T1 sequence (P28335 33-458): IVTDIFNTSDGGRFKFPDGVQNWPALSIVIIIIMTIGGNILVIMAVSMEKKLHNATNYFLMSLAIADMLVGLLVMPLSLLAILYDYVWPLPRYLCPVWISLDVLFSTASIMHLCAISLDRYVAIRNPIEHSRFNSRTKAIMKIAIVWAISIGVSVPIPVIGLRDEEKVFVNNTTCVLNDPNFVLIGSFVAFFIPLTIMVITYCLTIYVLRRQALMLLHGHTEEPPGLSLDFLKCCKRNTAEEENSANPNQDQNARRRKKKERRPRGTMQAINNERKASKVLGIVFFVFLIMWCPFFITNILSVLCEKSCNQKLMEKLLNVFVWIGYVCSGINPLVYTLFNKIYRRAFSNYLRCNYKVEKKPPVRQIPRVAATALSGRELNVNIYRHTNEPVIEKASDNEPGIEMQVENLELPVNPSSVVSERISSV

[3] = target: 5-HT2AR (Homo sapiens, UniProt P28223); assay: NIMH-PDSP radioligand binding, 5-HT2A receptor
[4] = target: H1R (Homo sapiens, UniProt P35367); assay: NIMH-PDSP radioligand binding, histamine H1 receptor
[5] = target: 5-HT7R (Homo sapiens, UniProt P34969); assay: NIMH-PDSP radioligand binding, 5-HT7 receptor
[6] = target: 5-HT1AR (Homo sapiens, UniProt P08908); assay: NIMH-PDSP radioligand binding, 5-HT1A receptor
5-HT1AR, sequence (P08908 whole entry): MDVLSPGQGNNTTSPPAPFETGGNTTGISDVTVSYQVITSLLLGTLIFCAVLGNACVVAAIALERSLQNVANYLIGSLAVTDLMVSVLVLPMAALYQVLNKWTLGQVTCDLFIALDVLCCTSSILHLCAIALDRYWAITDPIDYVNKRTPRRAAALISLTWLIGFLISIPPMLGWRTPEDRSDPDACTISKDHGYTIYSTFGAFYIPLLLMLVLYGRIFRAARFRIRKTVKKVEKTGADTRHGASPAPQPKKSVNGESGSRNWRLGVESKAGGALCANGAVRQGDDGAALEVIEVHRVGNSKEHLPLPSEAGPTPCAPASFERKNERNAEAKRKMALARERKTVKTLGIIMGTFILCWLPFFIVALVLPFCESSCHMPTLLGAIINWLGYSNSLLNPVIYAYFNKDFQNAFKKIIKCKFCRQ

SERT, sequence (P31645 whole entry): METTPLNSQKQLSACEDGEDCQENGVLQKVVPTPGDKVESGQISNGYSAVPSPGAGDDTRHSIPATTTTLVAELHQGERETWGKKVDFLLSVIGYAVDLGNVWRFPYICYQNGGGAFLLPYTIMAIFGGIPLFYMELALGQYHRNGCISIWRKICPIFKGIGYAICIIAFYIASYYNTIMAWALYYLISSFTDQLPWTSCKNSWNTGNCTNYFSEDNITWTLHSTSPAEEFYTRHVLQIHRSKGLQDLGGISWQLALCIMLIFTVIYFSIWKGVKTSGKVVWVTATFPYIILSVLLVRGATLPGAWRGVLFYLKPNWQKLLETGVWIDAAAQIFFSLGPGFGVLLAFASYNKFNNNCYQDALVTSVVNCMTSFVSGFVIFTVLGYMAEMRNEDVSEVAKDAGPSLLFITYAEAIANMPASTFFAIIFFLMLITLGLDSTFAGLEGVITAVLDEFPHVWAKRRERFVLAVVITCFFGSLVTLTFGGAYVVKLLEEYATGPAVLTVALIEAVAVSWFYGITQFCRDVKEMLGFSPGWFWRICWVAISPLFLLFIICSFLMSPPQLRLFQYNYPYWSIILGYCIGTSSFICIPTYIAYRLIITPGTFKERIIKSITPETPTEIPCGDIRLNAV
5-HT2AR, sequence (P28223 whole entry): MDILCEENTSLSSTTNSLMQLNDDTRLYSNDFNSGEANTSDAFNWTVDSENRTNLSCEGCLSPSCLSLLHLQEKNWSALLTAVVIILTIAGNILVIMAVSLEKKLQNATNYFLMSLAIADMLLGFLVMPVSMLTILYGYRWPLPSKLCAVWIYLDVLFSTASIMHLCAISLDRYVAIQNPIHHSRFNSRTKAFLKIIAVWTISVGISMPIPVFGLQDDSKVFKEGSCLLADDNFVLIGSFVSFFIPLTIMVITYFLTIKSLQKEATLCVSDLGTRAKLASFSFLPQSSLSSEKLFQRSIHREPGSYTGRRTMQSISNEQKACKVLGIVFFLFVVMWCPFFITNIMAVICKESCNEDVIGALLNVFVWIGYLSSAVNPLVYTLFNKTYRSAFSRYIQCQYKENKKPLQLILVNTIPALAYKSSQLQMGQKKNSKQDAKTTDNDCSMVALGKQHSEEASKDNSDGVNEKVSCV
5-HT7R, sequence (P34969 whole entry): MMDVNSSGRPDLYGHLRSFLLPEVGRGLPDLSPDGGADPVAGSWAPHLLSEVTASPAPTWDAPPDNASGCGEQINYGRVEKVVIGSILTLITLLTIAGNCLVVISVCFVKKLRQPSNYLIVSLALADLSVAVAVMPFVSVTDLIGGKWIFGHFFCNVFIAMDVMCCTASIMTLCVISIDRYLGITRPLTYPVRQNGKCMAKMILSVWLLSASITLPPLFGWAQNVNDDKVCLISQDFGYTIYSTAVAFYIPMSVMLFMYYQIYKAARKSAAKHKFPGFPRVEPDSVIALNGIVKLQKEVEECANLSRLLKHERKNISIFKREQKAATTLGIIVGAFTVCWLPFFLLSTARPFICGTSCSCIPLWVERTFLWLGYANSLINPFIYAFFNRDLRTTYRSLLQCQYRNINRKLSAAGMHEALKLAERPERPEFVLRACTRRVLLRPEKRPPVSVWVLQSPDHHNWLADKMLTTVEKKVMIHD
H1R, sequence (P35367 whole entry): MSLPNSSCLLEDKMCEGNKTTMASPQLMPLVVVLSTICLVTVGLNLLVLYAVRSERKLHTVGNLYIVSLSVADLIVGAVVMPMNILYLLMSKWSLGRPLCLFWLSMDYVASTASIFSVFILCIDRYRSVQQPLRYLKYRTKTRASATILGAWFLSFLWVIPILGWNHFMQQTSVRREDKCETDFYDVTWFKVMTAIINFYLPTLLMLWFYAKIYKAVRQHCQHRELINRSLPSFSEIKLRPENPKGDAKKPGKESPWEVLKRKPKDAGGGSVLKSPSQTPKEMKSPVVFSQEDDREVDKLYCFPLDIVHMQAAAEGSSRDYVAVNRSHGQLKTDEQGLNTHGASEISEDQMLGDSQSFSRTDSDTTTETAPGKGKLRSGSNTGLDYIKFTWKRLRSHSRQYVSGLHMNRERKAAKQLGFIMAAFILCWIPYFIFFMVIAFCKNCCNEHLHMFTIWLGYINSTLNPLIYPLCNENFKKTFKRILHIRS

Question: What does the source list for O=C1NCN(c2ccccc2)C12CCN(CCCCc1nc3ccccc3s1)CC2 [Compound 7, 8-(4-(benzo[d]thiazol-2-yl)butyl)-1-phenyl-1,3,8-triazaspiro[4.5]decan-4-one]?
Answer: Ki SERT [1]: MTA; Ki 5HT2CR [2]: MTA

Question: With O=C(CCCCN1CCC2(CC1)C(=O)NCN2c1ccccc1)c1nc2ccccc2s1 [Compound 9] as the compound, how does the “Ki 5HT2CR” value [2] read?
Answer: MTA

Question: With O=C1NCN(c2ccccc2)C12CCN(CCCCc1nc3ccccc3o1)CC2 [Compound 10, 8-(4-(benzo[d]oxazol-2-yl)butyl)-1-phenyl-1,3,8-triazaspiro[4.5]decan-4-one] as the compound, how does the “Ki 5-HT2A” value [3] read?
Answer: MTA

Question: What about the “Ki SERT” value [1] of the same compound?
Answer: MTA

Question: What about the “SERT binding affinity (in words)” value [1] of the same compound?
Answer: without significant affinity

Question: And the “Ki 5HT2CR” value [2]?
Answer: MTA

Question: How did the “SERT binding affinity (in words)” value [1] turn out when O=C1NCN(c2ccccc2)C12CCN(CCCCc1c[nH]c3ccccc13)CC2 [Compound 11, 8-(4-(1H-indol-3-yl)butyl)-1-phenyl-1,3,8-triazaspiro[4.5]decan-4-one] was run?
Answer: high affinity

Question: What about the “H1R binding affinity (in words)” value [4] of the same compound?
Answer: moderate binding

Question: What about the “5-HT2CR binding affinity (in words)” value [2] of the same compound?
Answer: no significant affinity

Question: What about the “Ki 5HT2CR” value [2] of the same compound?
Answer: MTA

Question: O=C(CCCCN1CCN(C(c2ccc(F)cc2)c2ccc(F)cc2)CC1)c1nc2ccccc2s1 [Compound 17, 1-(benzo[d]thiazol-2-yl)-5-(4-(bis(4-fluorophenyl)methyl)piperazin-1-yl)pentan-1-one dihydrochloride] was tested. Which “pKi ± SE 5-HT7” value [5] did it give?
Answer: 562.0/ 6.3±0.1

Question: How did the “Ki 5-HT2A” value [3] turn out when Cl.O=C(CCCCN1C2CCC1CC(O)(c1ccc(Cl)cc1)C2)c1nc2ccccc2s1 (stereo not drawn) [Compound 22, 1-(Benzo[d]thiazol-2-yl)-5-(3-(4-chlorophenyl)-3-hydroxy-8-azabicyclo[3.2.1]octan-8-yl)-pentan-1-one hydrochloride] was run?
Answer: MTA

Question: What about the “Ki 5-HT1A” value [6] of the same compound?
Answer: MTA

Question: And the “Ki 5HT2CR” value [2]?
Answer: MTA
